The record followed here is patent publication US9101566B2, “Fermentation product of cereal plant-derived material and immunomodulator” (KIRIN HOLDINGS KABUSHIKI KAISHA, priority 2009, dated 2015).

Assay [1] deals with mDCs treated with 14-DHE co-cultured with naive CD4+ T cells. The assay is described as follows: Antigen-non-specific Treg-inducing capacity (MLR) of DCs treated with 14-DHE (Example 10). The class given is cell-based, mouse. Here is the method:
In a manner similar to that in the above Examples, DCs were induced using Flt-3L from BALB/c mouse bone marrow cells in the presence of a processed product of wheat bran fermented with koji and then treated with LPS for 24 hours. mDCs were sorted from the thus obtained cells in a manner similar to that in Example 3 and then subjected to mitomycin C treatment to stop the DC proliferation.
Next, naive CD4^+ T cells were sorted from C57BL/6, DCs and the sorted cells were mixed at DC:CD4^+T=1:10 (the number of cells), and then they were co-cultured. At this time, the medium was supplemented with 0.5 ng/mL TGF-β1 (Peprotech).
Seven days layer, cells were recovered and then the proportion of FoxP3^+CD25^+ T cells in CD^+ T cells was determined using a flow cytometer (after staining of cell surface markers using anti-CD25-FITC, anti-CD3-APC-Cy7, and anti-CD4-PerCP, cell permeabilization treatment was performed using a Foxp3 Staining Buffer Set (e Bioscience) according to the manufacturer's instructions, and then intracellular Foxp3 was stained with anti-Foxp3-PE (e Bioscience)). […]
In a manner similar to that in Example 5, the Treg-inducing activity of mDCs treated with 14-DHE was measured. […]

In assay [2] the test system is C57BL/6 mDCs co-cultured with OT-II mouse naive CD4+ T cells. In words: Cytokine profile of CD4+ T cells induced by DCs treated with 14-DHE, antigen-specific T cell reaction (Example 11). The format is cell-based. The settings on record: 0.1 μM OVA323-339 peptide, day 4, vs control mDCs. Here is the method: mDCs were prepared by the method same as that in the MLR experiment. Naive CD4^+ T cells were prepared from OT-II mice (Charles River) in which TCR of CD4^+ T cells is specific for OVA323-339 epitope on the C57BL/6 background. Mixed culture was performed at a ratio of mDC:CD4^+ T cell of 1:5 in the presence of 0.1 μM OVA323-339 peptide. The culture supernatant was recovered on day 4 of culture, and then TNF-α, IFN-γ, IL-6, IL-10, and IL-17 were measured by ELISA.

In assay [3] the test system is C57BL/6 mDCs co-cultured with BALB/c CD8+ T cells. In words: CD8+ Treg differentiation-inducing capacity of DCs treated with 14-DHE (Example 12). The format is cell-based, mouse. The settings on record: mDC:CD8+ T 1:10; 0.5 ng/mL TGF-α 3; 5 days. Here is the method:
In a manner similar to Example 11, mDCs were sorted from DCs induced from C57BL/6 mouse bone marrow cells in the presence of 14-DHE and Flt-3L. Next, CD8^+ T cells were isolated from the BALB/c mouse spleen using the CD8α^+ T cell isolation kit (mouse) (Miltenyi Biotec). Cells were mixed at a ratio of mDC:CD8^+ T cell of 1:10 and then cultured in the medium containing 0.5 ng/mL […] for 5 days. Five days later, the cells were recovered and then the proportion of CD25^+FoxP3^+ cells in CD8^+ T cells was determined using a flow cytometer. Prior to flow cytometry, cell staining was performed using CD8α-PE-Cy7, CD25-APC-Cy7, and CD3e-PerCP, cell membrane permeabilization treatment was performed using the FoxP3 staining buffer set (eBioscience), and then FoxP3-PE staining was performed.

Assay [4] relates to CD4+ T cells in regional lymph node cells and spleen cells of EAE mice. The assay is described as follows: EAE model, day 11 autopsy: intracellular cytokine positive rate in CD4+ T cells. The class given is in vivo, mouse. The settings on record: re-stimulation with 2 μM MOG. Here is the method:
(§1) On day 0, the 35-55 peptide (MOG35-55, Operon), a glycoprotein of myelin oligodendroglial cells, as an antigen was mixed with complete Freund's adjuvant (CFA, Difco) and then the mixture was subcutaneously administered at a dose of 200 μg/animal. Subsequently, pertussis toxin (Wako Pure Chemical Industries, Japan) was intraperitoneally administered at a dose of 200 ng/animal on day 1 and day 3, thereby inducing the onset of multiple sclerosis. During days 7 to 18, 14-DHE was intraperitoneally administered at a dose of 10 μg/animal once a day. To the vehicle group, the following solvent for 14-DHE was administered: 10% ethanol (Wako Pure Chemical Industries, Japan)/10% Cremophor (Wako Pure Chemical Industries, Japan)/80% PBS (Takara, Japan).
Mice were autopsied on day 11 (when inflammation was thought to take place in vivo) to obtain biochemical data.
(2) Spleen cells and regional lymph node (inguinal or axillary) cells were prepared and then cultured for 3 days with re-stimulation with 2 μM MOG. Golgi plug (1 μL/mL) (Becton, Dickinson and Company) was added and then further incubation was performed for 4.5 hours. Cells were recovered and then subjected to cell surface staining with CD4-PerCP and CD3-APC-Cy7. Next, cell membrane permeabilization treatment was performed using the Cytofix/CytoPerm kit (Becton, Dickinson and Company), intracellular cytokine staining was performed using antibodies to TNF-α-FITC, IL-17-PE, IL-10-APC, and IFN-γ-PE-Cy7, and then the positive rate of intracellular cytokines in CD4^+ T cells was measured using FACS.

Assay [5] has as its system mDCs (CD11b+CD11c+B220-) of EAE mice. In words: EAE model, day 11 autopsy: mDC activation markers. The format is in vivo, mouse. The settings on record: autopsy on day 11. Here is the method:
as §1, with “Japan). Mice were autopsied on day 11 (when inflammation was thought to take place in vivo) to obtain biochemical data. […] A gate was set on mDCs, which are CD11b^+CD11c^+B220^− cells, and I-A/I-E (MHC class II), CD86, and CD80 were measured as activation markers.” for “Japan).”

Some results are limits rather than exact numbers.

For `CC(C)[C@@H](C)/C=C/[C@@H](C)[C@H]1CC=C2C3=CC=C4C[C@@H](O)CC[C@]4(C)[C@H]3CC[C@@]21C` [Sample 14-DHE, ergosta-5,7,14,22-tetraen-3β-ol], the “generation of Treg compared with the control” value in assay [1] is on record as “about 2 times”. In assay [2], the “IFN-γ production (ELISA)” value is listed as “no statistically significant difference was observed”, the “IL-6 production (ELISA)” value is listed as “a significant decrease”, the “IL-10 production (ELISA)” value is reported as “significant increase” and the “IL-17 production (ELISA)” value is listed as “no statistically significant difference was observed”. Also, in assay [2], the “TNF-α production (ELISA)” value was “a significant decrease”. For the same compound, the “induction of CD8+CD25+FoxP3+ cells compared with control mDCs” value in assay [3] is given as no less than 3 times. Further, in assay [4], the “IFN-γ production by CD4+ T cells, lymph node cells” value is listed as “significantly decrease”; the “IFN-γ production by CD4+ T cells, spleen cells” value was “significantly decrease”; the “IL-17 production by CD4+ T cells, spleen cells” value is recorded as “significantly decrease”; the “TNF-α production by CD4+ T cells, lymph node cells” value is on record as “significantly decrease”. Besides, the “TNF-α production by CD4+ T cells, spleen cells” value in assay [4] was “significantly decrease”. Moreover, in assay [5], the “CD80 on mDCs, lymph node” value was “significant decrease”; the “CD86 on mDCs, lymph node” value is given as “decreasing trend”; the “I-A/I-E (MHC class II) on mDCs, lymph node” value is on record as “decreasing trend”; the “I-A/I-E on mDCs, spinal cord” value was “significant decrease”.
